Experimental data reported in ChEMBL document CHEMBL3137667, “[Drug-induced liver injury; fourteenth updated edition of the bibliographic database of liver injuries and related drugs]” (Gastroenterol Clin Biol, 2004).

Tests used:
[1] = Highest frequency of moderate liver toxicity observed during clinical trials, expressed as a percentage. [column '% BIOL' in source]; details: human
[2] = Highest frequency of acute liver toxicity observed during clinical trials, expressed as a percentage. [column '% AIGUE' in source]; details: human
[3] = human, serum
[4] = human, serum; remark: listed apart in the source
[5] = human
[6] = human; remark: listed apart in the source
[7] = human; remark: listed apart in the source
[8] = human, serum, 4383 h
[9] = human; remark: listed apart in the source
[10] = human; remark: listed apart in the source
[11] = human; remark: listed apart in the source
[12] = human; remark: listed apart in the source
[13] = human; remark: listed apart in the source
[14] = human; remark: listed apart in the source
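For Hepatotoxicity (association with vascular disease) in this document: count of indexed literature references reporting vascular liver injury in humans, e.g. peliosis hepatitis, hepatic veno-occlusive disease or Budd-Chiari syndrome.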
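For Hepatotoxicity (benign tumour) in this document: value is a count of indexed literature references citing a benign tumour confirmed by histopathology.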
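For Hepatotoxicity (choleostasis) in this document: human cholestatic liver injury, shown by histopathology or by peak ALT or AST elevation over alkaline phosphatase ratio below 2, value counts indexed literature reports.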
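For Hepatotoxicity (chronic liver disease) in this document: chronic liver injury confirmed by histopathology or persistently raised serum aminotransferase activity beyond 6 months, value given as the count of indexed literature references.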
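For Hepatotoxicity (cirrhosis) in this document: value is a count of indexed literature references reporting cirrhosis confirmed by histopathology.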
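For Hepatotoxicity (cytolytic) in this document: human cytolytic liver injury, shown by histopathology or by a ratio above 5 of peak ALT or AST elevation to alkaline phosphatase elevation, value counts indexed references.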
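For Hepatotoxicity (granulomatous hepatitis) in this document: value is a count of indexed literature references reporting granulomatous liver disease confirmed by histopathology.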
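For Hepatotoxicity (malignant tumour) in this document: malignant tumour confirmed by histopathology, value gives the count of indexed literature references reporting it.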
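For Hepatotoxicity (severe hepatitis) in this document: human clinical data: severe hepatitis, meaning potentially life-threatening liver failure or clinically observed cases, the value counts how many indexed literature references report it.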
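For Hepatotoxicity (steatosis) in this document: steatosis confirmed by histopathology, value is the count of indexed references.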

In the case of `CN[C@@H]1[C@@H](O)[C@@H](O[C@@H]2[C@@H](O)[C@H](O[C@H]3OC(CN)=CC[C@H]3N)[C@@H](N)C[C@H]2N)OC[C@]1(C)O` [SISOMICIN], the “Hepatotoxicity (moderate)” value [1] is reported as 5.7%, the “Hepatotoxicity (acute)” value [2] is reported as 0% and the “Hepatotoxicity (moderate)” value [3] is reported as 2. The “Hepatotoxicity (acute)” value [4] was 0, the “Hepatotoxicity (cytolytic)” value [5] was 0 and the “Hepatotoxicity (choleostasis)” value [6] was 0. For the same compound, the “Hepatotoxicity (severe hepatitis)” value [7] was 0, the “Hepatotoxicity (chronic liver disease)” value [8] was 0 and the “Hepatotoxicity (cirrhosis)” value [9] was 0. The “Hepatotoxicity (granulomatous hepatitis)” value [10] was 0, the “Hepatotoxicity (association with vascular disease)” value [11] was 0 and the “Hepatotoxicity (steatosis)” value [12] was 0. For the same compound, the “Hepatotoxicity (malignant tumour)” value [13] was 0 and the “Hepatotoxicity (benign tumour)” value [14] was 0.
In the case of `N[C@@H]1CN(c2c(F)cc3c(=O)c(C(=O)O)cn([C@@H]4C[C@@H]4F)c3c2Cl)CC12CC2` [SITAFLOXACIN ANHYDROUS], the “Hepatotoxicity (moderate)” value [1] is reported as 23.2%, the “Hepatotoxicity (acute)” value [2] is reported as 0% and the “Hepatotoxicity (moderate)” value [3] is reported as 6. The “Hepatotoxicity (acute)” value [4] was 0, the “Hepatotoxicity (cytolytic)” value [5] was 0 and the “Hepatotoxicity (choleostasis)” value [6] was 0. For the same compound, the “Hepatotoxicity (severe hepatitis)” value [7] was 0, the “Hepatotoxicity (chronic liver disease)” value [8] was 0 and the “Hepatotoxicity (cirrhosis)” value [9] was 0. For the same compound, the “Hepatotoxicity (granulomatous hepatitis)” value [10] was 0, the “Hepatotoxicity (association with vascular disease)” value [11] was 0 and the “Hepatotoxicity (steatosis)” value [12] was 0. The “Hepatotoxicity (malignant tumour)” value [13] was 0 and the “Hepatotoxicity (benign tumour)” value [14] was 0.
In the case of `Cc1cc2c(cc1CC(=O)c1sccc1S(=O)(=O)Nc1onc(C)c1Cl)OCO2` [SITAXENTAN], the “Hepatotoxicity (moderate)” value [1] is reported as 0%, the “Hepatotoxicity (acute)” value [2] is reported as 0% and the “Hepatotoxicity (moderate)” value [3] is reported as 1. For the same compound, the “Hepatotoxicity (acute)” value [4] was 0, the “Hepatotoxicity (cytolytic)” value [5] was 0 and the “Hepatotoxicity (choleostasis)” value [6] was 0. The “Hepatotoxicity (severe hepatitis)” value [7] was 0, the “Hepatotoxicity (chronic liver disease)” value [8] was 0 and the “Hepatotoxicity (cirrhosis)” value [9] was 0. For the same compound, the “Hepatotoxicity (granulomatous hepatitis)” value [10] was 0, the “Hepatotoxicity (association with vascular disease)” value [11] was 0 and the “Hepatotoxicity (steatosis)” value [12] was 0. For the same compound, the “Hepatotoxicity (malignant tumour)” value [13] was 0 and the “Hepatotoxicity (benign tumour)” value [14] was 0.
In the case of `O=c1[nH]c(=O)n([C@@H]2O[C@H](CO)[C@@H](O)[C@@H]2O)cc1/C=C/Br` [SORIVUDINE], the “Hepatotoxicity (moderate)” value [1] is reported as 2%, the “Hepatotoxicity (acute)” value [2] is reported as 0% and the “Hepatotoxicity (moderate)” value [3] is reported as 1. The “Hepatotoxicity (acute)” value [4] was 0, the “Hepatotoxicity (cytolytic)” value [5] was 0 and the “Hepatotoxicity (choleostasis)” value [6] was 0. For the same compound, the “Hepatotoxicity (severe hepatitis)” value [7] was 0, the “Hepatotoxicity (chronic liver disease)” value [8] was 0 and the “Hepatotoxicity (cirrhosis)” value [9] was 0. For the same compound, the “Hepatotoxicity (granulomatous hepatitis)” value [10] was 0, the “Hepatotoxicity (association with vascular disease)” value [11] was 0 and the “Hepatotoxicity (steatosis)” value [12] was 0. For the same compound, the “Hepatotoxicity (malignant tumour)” value [13] was 0 and the “Hepatotoxicity (benign tumour)” value [14] was 0.
For `C[C@@H]1CN(c2c(F)c(N)c3c(=O)c(C(=O)O)cn(C4CC4)c3c2F)C[C@H](C)N1` [SPARFLOXACIN], the “Hepatotoxicity (moderate)” value [1] was 20%, the “Hepatotoxicity (acute)” value [2] was 0% and the “Hepatotoxicity (moderate)” value [3] was 29. The “Hepatotoxicity (acute)” value [4] was 0, the “Hepatotoxicity (cytolytic)” value [5] was 0 and the “Hepatotoxicity (choleostasis)” value [6] was 0. For the same compound, the “Hepatotoxicity (severe hepatitis)” value [7] was 0, the “Hepatotoxicity (chronic liver disease)” value [8] was 0 and the “Hepatotoxicity (cirrhosis)” value [9] was 0. The “Hepatotoxicity (granulomatous hepatitis)” value [10] was 0, the “Hepatotoxicity (association with vascular disease)” value [11] was 0 and the “Hepatotoxicity (steatosis)” value [12] was 0. The “Hepatotoxicity (malignant tumour)” value [13] was 0 and the “Hepatotoxicity (benign tumour)” value [14] was 0.
For `Cc1nc(NS(=O)(=O)c2ccc(N)cc2)oc1C` [SULFAMOXOLE], the “Hepatotoxicity (moderate)” value [1] was 0%, the “Hepatotoxicity (acute)” value [2] was 0% and the “Hepatotoxicity (moderate)” value [3] was 0. For the same compound, the “Hepatotoxicity (acute)” value [4] was 1, the “Hepatotoxicity (cytolytic)” value [5] was 0 and the “Hepatotoxicity (choleostasis)” value [6] was 0. The “Hepatotoxicity (severe hepatitis)” value [7] was 0, the “Hepatotoxicity (chronic liver disease)” value [8] was 0 and the “Hepatotoxicity (cirrhosis)” value [9] was 0. The “Hepatotoxicity (granulomatous hepatitis)” value [10] was 0, the “Hepatotoxicity (association with vascular disease)” value [11] was 0 and the “Hepatotoxicity (steatosis)” value [12] was 0. The “Hepatotoxicity (malignant tumour)” value [13] was 0 and the “Hepatotoxicity (benign tumour)” value [14] was 0.
With `Nc1ccc(S(=O)(=O)Nc2nccs2)cc1` [SULFATHIAZOLE] the “Hepatotoxicity (moderate)” value ([1]; Liver) was 0%, the “Hepatotoxicity (acute)” value ([2]; Liver) was 0% and the “Hepatotoxicity (moderate)” value [3] was 1. The “Hepatotoxicity (acute)” value [4] was 0, the “Hepatotoxicity (cytolytic)” value ([5]; Liver) was 0 and the “Hepatotoxicity (choleostasis)” value ([6]; Liver) was 0. For the same compound, the “Hepatotoxicity (severe hepatitis)” value ([7]; Liver) was 0, the “Hepatotoxicity (chronic liver disease)” value [8] was 0 and the “Hepatotoxicity (cirrhosis)” value [9] was 0. For the same compound, the “Hepatotoxicity (granulomatous hepatitis)” value ([10]; Liver) was 0, the “Hepatotoxicity (association with vascular disease)” value [11] was 0 and the “Hepatotoxicity (steatosis)” value [12] was 0. For the same compound, the “Hepatotoxicity (malignant tumour)” value [13] was 0 and the “Hepatotoxicity (benign tumour)” value [14] was 0.
With `Cc1cc(NS(=O)(=O)c2ccc(N)cc2)nc(C)n1` [SULFISOMIDINE] the “Hepatotoxicity (moderate)” value [1] was 0%, the “Hepatotoxicity (acute)” value [2] was 0% and the “Hepatotoxicity (moderate)” value [3] was 0. The “Hepatotoxicity (acute)” value [4] was 1, the “Hepatotoxicity (cytolytic)” value [5] was 0 and the “Hepatotoxicity (choleostasis)” value [6] was 0. For the same compound, the “Hepatotoxicity (severe hepatitis)” value [7] was 0, the “Hepatotoxicity (chronic liver disease)” value [8] was 0 and the “Hepatotoxicity (cirrhosis)” value [9] was 0. For the same compound, the “Hepatotoxicity (granulomatous hepatitis)” value [10] was 0, the “Hepatotoxicity (association with vascular disease)” value [11] was 0 and the “Hepatotoxicity (steatosis)” value [12] was 0. The “Hepatotoxicity (malignant tumour)” value [13] was 0 and the “Hepatotoxicity (benign tumour)” value [14] was 0.
In the case of `CC1(C)S[C@@H]2[C@H](NC(=O)[C@H](N)c3ccccc3)C(=O)N2[C@H]1C(=O)OCOC(=O)[C@@H]1N2C(=O)C[C@H]2S(=O)(=O)C1(C)C` [SULTAMICILLIN], the “Hepatotoxicity (moderate)” value [1] is reported as 43%, the “Hepatotoxicity (acute)” value [2] is reported as 0.2% and the “Hepatotoxicity (moderate)” value [3] is reported as 61. For the same compound, the “Hepatotoxicity (acute)” value [4] was 1, the “Hepatotoxicity (cytolytic)” value [5] was 0 and the “Hepatotoxicity (choleostasis)” value [6] was 1. For the same compound, the “Hepatotoxicity (severe hepatitis)” value [7] was 0, the “Hepatotoxicity (chronic liver disease)” value [8] was 0 and the “Hepatotoxicity (cirrhosis)” value [9] was 0. The “Hepatotoxicity (granulomatous hepatitis)” value [10] was 0, the “Hepatotoxicity (association with vascular disease)” value [11] was 0 and the “Hepatotoxicity (steatosis)” value [12] was 0. The “Hepatotoxicity (malignant tumour)” value [13] was 0 and the “Hepatotoxicity (benign tumour)” value [14] was 0.
With `Cc1nc(C)c2c(n1)N(Cc1ccc(-c3ccccc3-c3nnn[nH]3)cc1)C(=O)CC2` [TASOSARTAN] the “Hepatotoxicity (moderate)” value [1] was 1.9%, the “Hepatotoxicity (acute)” value [2] was 0% and the “Hepatotoxicity (moderate)” value [3] was 2. For the same compound, the “Hepatotoxicity (acute)” value [4] was 0, the “Hepatotoxicity (cytolytic)” value [5] was 0 and the “Hepatotoxicity (choleostasis)” value [6] was 0. The “Hepatotoxicity (severe hepatitis)” value [7] was 0, the “Hepatotoxicity (chronic liver disease)” value [8] was 0 and the “Hepatotoxicity (cirrhosis)” value [9] was 0. For the same compound, the “Hepatotoxicity (granulomatous hepatitis)” value [10] was 0, the “Hepatotoxicity (association with vascular disease)” value [11] was 0 and the “Hepatotoxicity (steatosis)” value [12] was 0. The “Hepatotoxicity (malignant tumour)” value [13] was 0 and the “Hepatotoxicity (benign tumour)” value [14] was 0.
In the case of `CC[C@H]1OC(=O)[C@H](C)C(=O)[C@H](C)[C@@H](O[C@@H]2O[C@H](C)C[C@H](N(C)C)[C@H]2O)[C@](C)(OC)C[C@@H](C)C(=O)[C@H](C)[C@H]2N(CCCCn3cnc(-c4cccnc4)c3)C(=O)O[C@]12C` [TELITHROMYCIN], the “Hepatotoxicity (moderate)” value ([1]; Liver) is reported as 1.8%, the “Hepatotoxicity (acute)” value ([2]; Liver) is reported as 0% and the “Hepatotoxicity (moderate)” value [3] is reported as 4. For the same compound, the “Hepatotoxicity (acute)” value [4] was 0, the “Hepatotoxicity (cytolytic)” value ([5]; Liver) was 0 and the “Hepatotoxicity (choleostasis)” value ([6]; Liver) was 0. The “Hepatotoxicity (severe hepatitis)” value ([7]; Liver) was 0, the “Hepatotoxicity (chronic liver disease)” value [8] was 0 and the “Hepatotoxicity (cirrhosis)” value [9] was 0. The “Hepatotoxicity (granulomatous hepatitis)” value ([10]; Liver) was 0, the “Hepatotoxicity (association with vascular disease)” value [11] was 0 and the “Hepatotoxicity (steatosis)” value [12] was 0. For the same compound, the “Hepatotoxicity (malignant tumour)” value [13] was 0 and the “Hepatotoxicity (benign tumour)” value [14] was 0.
